Results from PMC4025172 (Breast Cancer Research and Treatment, 2014).
Read-outs that look alike come from different tables or passages of the source. Marks after values point to notes of the source that are not given here. Values belong to the molecule of their own block, whether it stands above or below them.

Experiments:
[1] = cited from earlier work
[2] = system: E3 receptor complex / E2 receptor complex; details: cited from earlier work
BC cells = details: depends on concentration and duration of action; cited from earlier work
[3] = format: in vivo, human; details: for AUC(0–24),C2: parameter not reliable; for AUC(0-t) / Cmax / concentration at -0.5 h / Tmax: serum, other: vaginal, 0.03 mg
nuclear ER = details: cited from earlier work
breast cancer = details: retrospective cohort study in Finland, postmenopausal patients; cited from earlier work
[4] = cited from earlier work; remark: listed apart in the source
[5] = vaginal ring or tablets with E2, postmenopausal BC patients (no AI therapy)
[6] = after 4 weeks of daily application

SMILES: C[C@]12CC[C@@H]3c4ccc(O)cc4CC[C@H]3[C@@H]1CC[C@@H]2O [E2, estradiol]
serum levels of E2 ([1]; vaginal administration of any dose of E2 in AI users, ref [3]–[14], [15]–[18]): increases | effect on vaginal atrophy [1, 5]: efficiently relieved vaginal atrophy | serum levels of E2 and E1 [1, 5]: temporarily raised | nuclear retention time of the receptor complex [2]: > 12 h | effect on BC cells in vitro (BC cells): can stimulate

t max,C2 ([3]; Visit C2 (day 28), maximum): 8.0 h | AUC(0–24),C2 ([3]; Visit C2 (day 28), maximum): 0.457 ng·h/mL | t max,C2 ([3]; Visit C2 (day 28), minimum): 4.0 h | C max,C2 ([3]; Visit C2 (day 28), minimum, LLOQ E3 10.00 pg/ml): <LLOQ | AUC(0–24),C2 ([3]; Visit C2 (day 28), minimum): <LLOQ | C max,E ([3]; Visit E (day 0), first application, maximum): 0.168 ng/mL | AUC(0–24),E ([3]; Visit E (day 0), maximum): 0.378 ng·h/mL | t max,E ([3]; Visit E (day 0), maximum): 3.1 h | AUC(0–24),E ([3]; Visit E (day 0), minimum): <LLOQ | t max,E ([3]; Visit E (day 0), minimum): 2.0 h | C max,E ([3]; Visit E (day 0), minimum, LLOQ E3 10.00 pg/ml): <LLOQ | women with slightly increased serum E3 ([3]; after 4 weeks): 8 women | patients without detectable increase of E3 [3, 6]: 50% | women whose highest detected E3 level was below 20 pg/ml [3, 6]: 25% | women with transient increase in serum E3 ([3]; after the first application (visit E, day 0)): 15 of 16 | trough serum E3 levels ([3]; all visits, all except two subjects, LLOQ 10.00 pg/ml): below LLOQ | AUC(0-t) ([3]; female, human, AUC(0–24),C2, Visit C2 (day 28), mean, n=15, not reliable due to late metabolism and insufficient testing points): 0.131 ng·h/mL | AUC(0-t) ([3]; female, human, AUC(0–24),E, Visit E (day 0), GeoMean): 0.154 ng·h/mL | AUC(0-t) ([3]; female, human, AUC(0–24),E, Visit E (day 0), mean, n=16): 0.212 ng·h/mL | AUC(0-t) ([3]; female, human, AUC(0–24),E, Visit E (day 0), median): 0.241 ng·h/mL | Cmax ([3]; female, human, C max,C2, Visit C2 (day 28), GeoMean): 0.011 ng/mL | Cmax ([3]; female, human, C max,C2, Visit C2 (day 28), mean, n=16): 0.0158 ng/mL | Cmax ([3]; female, human, C max,C2, Visit C2 (day 28), median): 0.0091 ng/mL | Cmax ([3]; female, human, C max,E, Visit E (day 0), GeoMean): 0.0882 ng/mL | Cmax ([3]; female, human, C max,E, Visit E (day 0), mean, n=16): 0.104 ng/mL | Cmax ([3]; female, human, C max,E, Visit E (day 0), median): 0.11 ng/mL | concentration at -0.5 h ([3]; female, human, E3 baseline and trough, maximum, visit C1 (week 2)): 0.0492 ng/mL | concentration at -0.5 h ([3]; female, human, E3 baseline and trough, maximum, visit C2 (week 4)): 0.0145 ng/mL | concentration at -0.5 h ([3]; female, human, serum estriol (E3) concentration, Visit C2 (day 28), maximum, −0.5 h (pre-dose)): 0.0145 ng/mL | concentration at -0.5 h ([3]; female, human, serum estriol (E3) concentration, Visit C2 (day 28), mean, −0.5 h (pre-dose)): 0.00091 ng/mL | concentration at -0.5 h ([3]; female, human, serum estriol (E3) concentration, Visit C2 (day 28), median, −0.5 h (pre-dose)): 0 ng/mL | concentration at -0.5 h ([3]; female, human, serum estriol (E3) concentration, Visit C2 (day 28), minimum, −0.5 h (pre-dose)): 0 ng/mL | concentration at -0.5 h ([3]; female, human, serum estriol (E3) concentration, Visit E (day 0), maximum, −0.5 h (pre-dose)): 0 ng/mL | concentration at -0.5 h ([3]; female, human, serum estriol (E3) concentration, Visit E (day 0), mean, −0.5 h (pre-dose)): 0 ng/mL | concentration at -0.5 h ([3]; female, human, serum estriol (E3) concentration, Visit E (day 0), median, −0.5 h (pre-dose)): 0 ng/mL | concentration at -0.5 h ([3]; female, human, serum estriol (E3) concentration, Visit E (day 0), minimum, −0.5 h (pre-dose)): 0 ng/mL | Tmax ([3]; female, human, t max,C2, Visit C2 (day 28), mean, n=8): 7.2 h | Tmax ([3]; female, human, t max,C2, Visit C2 (day 28), median): 7.9 h | Tmax ([3]; female, human, t max,E, Visit E (day 0), mean, n=15): 2.5 h | Tmax ([3]; female, human, t max,E, Visit E (day 0), median): 2.2 h | exposure (AUC0–24) at end of initial therapy compared with study entry ([3]; human, in vivo): significantly lower | concentration at -0.5 h ([3]; human, trough E3 serum concentration, one subject, visit C1): 0.0223 ng/mL | E3 baseline and trough ([3]; maximum, visit C1 (week 2)): 49.20 pg/mL | E3 baseline and trough ([3]; maximum, visit C2 (week 4)): 14.50 pg/mL | E3 baseline and trough ([3]; maximum, visit C3 (week 8)): 0.00 pg/mL | E3 baseline and trough ([3]; maximum, visit C4 (week 12)): 0.00 pg/mL | E3 baseline and trough ([3]; maximum, visit E (day 0, baseline)): 0.00 pg/mL | E3 baseline and trough ([3]; mean (SD), visit C1 (week 2), n=14): 5.11 (14.01)^a pg/ml | E3 baseline and trough ([3]; mean (SD), visit C2 (week 4)): 0.91(3.63) pg/ml | E3 baseline and trough ([3]; mean (SD), visit C3 (week 8)): 0.00 pg/mL | E3 baseline and trough ([3]; mean (SD), visit C4 (week 12)): 0.00 pg/mL | E3 baseline and trough ([3]; mean (SD), visit E (day 0, baseline)): 0.00 pg/mL | E3 baseline and trough ([3]; minimum, visit C1 (week 2)): 0.00 pg/mL | E3 baseline and trough ([3]; minimum, visit C2 (week 4)): 0.00 pg/mL | E3 baseline and trough ([3]; minimum, visit C3 (week 8)): 0.00 pg/mL | E3 baseline and trough ([3]; minimum, visit C4 (week 12)): 0.00 pg/mL | E3 baseline and trough ([3]; minimum, visit E (day 0, baseline)): 0.00 pg/mL | C max at visit C2 compared to visit E ([3]; p < 0.0001): significantly lower | subjects without any quantifiable concentration of E3 ([3]; visit C2 (day 28)): half | time of serum E3 increase post-insertion ([3]; visit C2 (day 28)): 6 to 8 h | time of C max post-insertion ([3]; visit E (day 0), first application): 2 to 3 h
SMILES: C[C@]12CC[C@@H]3c4ccc(O)cc4CC[C@H]3[C@@H]1C[C@@H](O)[C@@H]2O [E3, estriol]
serum E2 or E3 ([1]; vaginal 0.25 mg E3 twice weekly, 12 weeks, no PK values determined): no increase | serum levels of E3 ([1]; vaginal application of conventional 0.50 mg dose of E3, ref [8]–[39]): increased | affinity to the nuclear ER as compared to E2 (nuclear ER): 10 times lower | nuclear retention time of the receptor complex [2]: < 6 h | association with risk of BC (breast cancer): neither the use of vaginal E2 and E3 preparations nor oral E3 were associated with a risk of BC | effect on BC cells in vitro (BC cells): can stimulate | metabolism into E1 or E2 ([4]; E3 is an end product of estrogen metabolism): cannot be transformed back | metabolic clearance [4]: rapid | vaginal absorption as the vaginal epithelium matures ([4]; within a few days to weeks after start of vaginal treatment): decreases
